# Measurements taken from patent publication US11751567B2, “Steroidal piperidone derivative, synthesis method, and use thereof” (NORTHWEST A&F UNIVERSITY, priority 2021, dated 2023).
# How the values were obtained:
# Format in all cases: in vivo
# Myzus persicae = assay: slide-dip mortality test on aphids (Myzus persicae); settings: 24 h, read-out: Corrected mortality (%) Myzus persicae
# Experimental: (§1) Inhibitory activities of the steroidal piperidone derivatives listed in Tables 1 and 2 against Myzus persicae, Aphis citricola, Brevicoryne brassicae, and wheat aphids were determined through slide-dip method. Specific process: A specified amount of a compound to be tested was accurately weighed and dissolved with acetone as a solvent, and solutions with concentrations of 50 μg/mL and 75 μg/mL were each prepared with a 0.1% Tween-80 aqueous solution, allowed to stand at room temperature for 0.5 h until the sample was completely dissolved, and stored for later use. Then, adult aphids were fixed with double-sided tape on slides with a small brush. One end of the slide with the aphids was immersed in the test solutions for 5 seconds. The excess liquid was absorbed with absorbent paper, and the mortality rates were calculated 24 h after treatment. Acetamiprid was adopted as a positive control, and a 0.1% Tween-80 aqueous solution was adopted as a negative control. and the results are shown in Table 1.
# Aphis citricola = assay: slide-dip mortality and LC50 test on aphids (Aphis citricola)
# Experimental: as §1
# Brevicoryne brassicae = assay: slide-dip mortality test on aphids (Brevicoryne brassicae); settings: 24 h, read-out: Corrected mortality (%) Brevicoryne brassicae
# Experimental: as §1
# wheat aphids = assay: slide-dip mortality test on aphids (wheat aphids); settings: 24 h, read-out: Corrected mortality (%) Wheat aphid
# Experimental: as §1
# Tetranychus truncatus = assay: slide dipping mortality test on mites; settings: slide dipping, process as for aphids, read-out: Corrected mortality (%) Tetranychus truncatus
# Experimental: as §1
# The inhibitory activities of the steroidal piperidone derivatives listed in Table 3 on Tetranychus truncatus were tested through slide dipping.
# Bemisia tabaci = assay: foliar spray test on cucumber leaf against B. tabaci; settings: 168 h, read-out: Corrected mortality (%) B. tabaci
# Experimental: (§2) The toxic activities of the steroidal piperidone derivatives listed in Table 4 against B. tabaci were tested by a foliar spray method. Specific process: A specified amount of a compound to be tested was accurately weighed and dissolved in acetone, and solutions with concentrations of 50 μg/mL and 75 μg/mL were each prepared with a 0.1% of Tween 80 aqueous solution and stored for later use. The pesticide solution was sprayed on the back side of a cucumber leaf, the cucumber leaf was naturally dried, and B. tabaci to be tested were placed on the cucumber leaf. Thiamethoxam was used as a positive control, and acetone was used as a negative control. Several deaths were observed after 7 d of treatment, and the corrected mortality was calculated.
# rice planthoppers = assay: foliar spray test against rice planthoppers; settings: 72 h, read-out: Corrected mortality (%) rice planthoppers
# Experimental: as §2
# The toxic activities of the steroidal piperidone derivatives listed in Table 5 against rice planthoppers were tested by a foliar spray method. Imidacloprid was used as a positive control, and acetone was used as a negative control. Several deaths were observed after 3 d of treatment, and the corrected mortality was calculated.
# [1] = 24 h, read-out: Corrected mortality (%) Aphis citricola
smiles,measurement,setting,value
C[C@]12CC[C@H](O)CC1=CC[C@@H]1[C@@H]2CC[C@@]2(C)[C@H]1CCC(=O)N2C(=O)c1ccc(C(F)(F)F)cc1 [Compound (2)-12],mortality at 50 µg/mL,Myzus persicae,59.1%
same,mortality at 75 µg/mL,Myzus persicae,79.8%
same,mortality at 50 µg/mL,Aphis citricola; [1],60.7%
same,mortality at 75 µg/mL,Aphis citricola; [1],83%
same,LC50,Aphis citricola; read-out: LC50 of inhibitory activity against Aphis citricola,21.9 µg/mL
same,mortality at 50 µg/mL,Brevicoryne brassicae,61.8%
same,mortality at 75 µg/mL,Brevicoryne brassicae,82.8%
same,mortality at 50 µg/mL,wheat aphids,65%
same,mortality at 75 µg/mL,wheat aphids,84.3%
same,mortality at 50 µg/mL,Tetranychus truncatus; 50 μg/mL,33.8%
same,mortality at 75 µg/mL,Tetranychus truncatus; 75 μg/mL,55.5%
same,mortality at 50 µg/mL,Bemisia tabaci,47.5%
same,mortality at 75 µg/mL,Bemisia tabaci,58.6%
same,mortality at 50 µg/mL,rice planthoppers,54%
same,mortality at 75 µg/mL,rice planthoppers,63%
